System: HT-1080 (ATCC, CCL-121) cells
Assay: HT-1080 cell viability assay with ferroptosis inducer RSL3 (Cell Titer-Glo)
Assay type: cell-based
Conditions: Homo sapiens; HT-1080 cells treated with RSL3; 3-fold, 10-point dilution, 1.1 μM highest concentration; Table 2; read-out: EC50 (nM), ferroptosis inhibitory activity
In short: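 EC50 was derived by sigmoidal dose-response regression of CellTiter-Glo luminescence viability, expressed relative to untreated wells. Compounds were tested in a ten-point, threefold dilution series (highest 1.1 μM) in the presence of the ferroptosis inducer RSL3. HT-1080 cells had been seeded at 6000 per well and grown overnight first.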

| EC50 [nM] | Structure (SMILES) |
| --- | --- |
| 0.1 to 100 | CCNc1nc2cc(Nc3ccc(N4CCC(C(F)(F)F)CC4)cc3)ccc2n1C [Compound 401, N2-ethyl-1-methyl-N5-(4-(4-(trifluoromethyl)piperidin-1-yl)phenyl)-1H-benzo[d]imidazole-2,5-diamine] |
| 0.1 to 100 | Cn1cc(C(N)=O)c2ccc(Nc3ccc(N4CCC(C(F)(F)F)CC4)cc3)cc21 [Compound 403, 1-methyl-6-((4-(4-(trifluoromethyl)piperidin-1-yl)phenyl)amino)-1H-indole-3-carboxamide] |
| 0.1 to 100 | Cn1c(=O)n(C)c2cc(Nc3ccc(C(F)(F)F)cc3)ccc21 [Compound 404, 1,3-dimethyl-5-((4-(trifluoromethyl)phenyl)amino)-1,3-dihydro-2H-benzo [d]imidazol-2-one] |
| 0.1 to 100 | Cn1c(=O)oc2cc(Nc3ccc(C4CCC(C)(C)CC4)cc3)ccc21 [Compound 406, 6-((4-(4,4-dimethylcyclohexyl)phenyl)amino)-3-methylbenzo[d]oxazol-2(3H)-one] |
| 0.1 to 100 | Cn1c(=O)n(C)c2cc(Nc3ccc(C4CCC(C)(C)CC4)cc3)ccc21 [Compound 407, 5-((4-(4,4-dimethylcyclohexyl)phenyl)amino)-1,3-dimethyl-1,3-dihydro-2H-benzo[d]imidazol-2-one] |
| 0.1 to 100 | CC1(C)CCC(c2ccc(Nc3ccc4nc(N)sc4c3)cc2)CC1 [Compound 409, N^6-(4-(4,4-dimethylcyclohexyl)phenyl)benzo[d]thiazole-2,6-diamine] |
| 0.1 to 100 | Cc1cc(N2CCC(C(F)(F)F)CC2)ccc1Nc1ccc2c(c1)CNC2 [Compound 410, N-(2-methyl-4-(4-(trifluoromethyl)piperidin-1-yl)phenyl) isoindolin-5-amine] |
| 0.1 to 100 | CCC(C)(C)c1ccc(Nc2ccc3c(c2)n(C)c(=O)n3C)cc1 [Compound 411, 1,3-dimethyl-5-((4-(tert-pentyl)phenyl)amino)-1,3-dihydro-2H-benzo[d]imidazol-2-one] |
| 0.1 to 100 | NC(=O)CCn1cc2cc(Nc3ccc(N4CCC(C(F)(F)F)CC4)cc3)ccc2n1 [Compound 413, 3-(5-((4-(4-(trifluoromethyl)piperidin-1-yl)phenyl)amino)-2H-indazol-2-yl)propanamide] |
| 0.1 to 100 | CNCCCn1ncc2cc(Nc3ccc(N4CCC(C(F)(F)F)CC4)cc3)ccc21 [Compound 414, 1-(3-(methylamino)propyl)-N-(4-(4-(trifluoromethyl)piperidin-1-yl)phenyl)-1H-indazol-5-amine] |
| 0.1 to 100 | CNCCCn1cc2cc(Nc3ccc(N4CCC(C(F)(F)F)CC4)cc3)ccc2n1 [Compound 415, 2-(3-(methylamino)propyl)-N-(4-(4-(trifluoromethyl)piperidin-1-yl)phenyl)-2H-indazol-5-amine] |
| 0.1 to 100 | CNCCCn1c(=O)oc2ccc(Nc3ccc(N4CCC(C(F)(F)F)CC4)cc3)cc21 [Compound 418, 3-(3-(methylamino)propyl)-5-((4-(4-(trifluoromethyl)piperidin-1-yl)phenyl)amino)benzo[d]oxazol-2(3H)-one] |
| 0.1 to 100 | NC(=O)NCCn1ncc2cc(Nc3ccc(N4CCC(C(F)(F)F)CC4)cc3)ccc21 [Compound 421, 1-(2-(5-((4-(4-(trifluoromethyl)piperidin-1-yl)phenyl)amino)-1H-indazol-1-yl)ethyl)urea] |
| 0.1 to 100 | CC1CN(c2ccc(Nc3ccc4c(cnn4C)c3)cc2)CC(C)O1 (stereo not drawn) [Compound 422, N-(4-(2,6-dimethylmorpholino)phenyl)-1-methyl-1H-indazol-5-amine] |
| 0.1 to 100 | CNCCn1c(=O)oc2ccc(Nc3ccc(N4CC(C)OC(C)C4)cc3)cc21 (stereo not drawn) [Compound 427, 5-((4-(2,6-dimethylmorpholino)phenyl)amino)-3-(2-(methylamino)ethyl) benzo[d]oxazol-2(3H)-one] |
| 0.1 to 100 | CC1CN(c2ccc(Nc3ccc4c(c3)C(C)(C)C(=O)N4C)cc2)CC(C)O1 (stereo not drawn) [Compound 428, 5-((4-(2,6-dimethylmorpholino)phenyl)amino)-1,3,3-trimethylindolin-2-one] |

Second part, the compound before the results:

| Structure (SMILES) | EC50 [nM] |
| --- | --- |
| CN(C)c1cn(C)c2cccc(Nc3ccc(N4CCC(C(F)(F)F)CC4)cc3)c12 [Compound 399, N3,N3,1-trimethyl-N4-(4-(4-(trifluoromethyl)piperidin-1-yl)phenyl)-1H-indole-3,4-diamine] | 0.1 to 100 |
| COc1cc(Nc2ccc(N3CCC(C(F)(F)F)CC3)cc2)cc2c1oc(=O)n2C [Compound 400, 7-methoxy-3-methyl-5-((4-(4-(trifluoromethyl)piperidin-1-yl)phenyl)amino)benzo[d]oxazol-2(3H)-one] | 0.1 to 100 |
| CCN(CC)c1nc2ccc(Nc3ccc(N4CCC(C(F)(F)F)CC4)cc3)cc2n1C [Compound 402, N2,N2-diethyl-1-methyl-N6-(4-(4-(trifluoromethyl)piperidin-1-yl)phenyl)-1H-benzo[d]imidazole-2,6-diamine] | 0.1 to 100 |
| CN(C)CCn1c(=O)n(C)c2cc(Nc3ccc(C4CCC(C)(C)CC4)cc3)ccc21 [Compound 405, 1-(2-(dimethylamino)ethyl)-5-((4-(4,4-dimethylcyclohexyl)phenyl)amino)-3-methyl-1,3-dihydro-2H-benzo[d]imidazol-2-one] | 0.1 to 100 |
| CC1(C)CCC(c2ccc(Oc3ccc4nc(N)sc4c3)cc2)CC1 [Compound 408, 6-(4-(4,4-dimethylcyclohexyl)phenoxy)benzo[d]thiazol-2-amine] | 0.1 to 100 |
| NC(=O)CCn1ncc2cc(Nc3ccc(N4CCC(C(F)(F)F)CC4)cc3)ccc21 [Compound 412, 3-(5-((4-(4-(trifluoromethyl)piperidin-1-yl)phenyl)amino)-1H-indazol-1-yl)propanamide] | 0.1 to 100 |
| CNCCCn1c(=O)oc2ccc(Nc3ccc(N4CC(C)OC(C)C4)cc3)cc21 (stereo not drawn) [Compound 416] | 0.1 to 100 |
| NC(=O)NCCn1c(=O)oc2ccc(Nc3ccc(N4CCC(C(F)(F)F)CC4)cc3)cc21 [Compound 417, 1-(2-(2-oxo-5-((4-(4-(trifluoromethyl)piperidin-1-yl)phenyl)amino)benzo[d]oxazol-3(2H)-yl)ethyl)urea] | 0.1 to 100 |
| NC(=O)NCCn1cc2cc(Nc3ccc(N4CCC(C(F)(F)F)CC4)cc3)ccc2n1 [Compound 419, 1-(2-(5-((4-(4-(trifluoromethyl)piperidin-1-yl)phenyl)amino)-2H-indazol-2-yl)ethyl)urea] | 0.1 to 100 |
| CC1CN(c2ccc(Nc3ccc4oc(=O)n(C)c4c3)cc2)CC(C)O1 (stereo not drawn) [Compound 420, 5-((4-(2,6-dimethylmorpholino)phenyl)amino)-3-methylbenzo[d]oxazol-2(3H)-one] | 0.1 to 100 |
| CC1CN(c2ccc(Nc3ccc4nn(C)cc4c3)cc2)CC(C)O1 (stereo not drawn) [Compound 423, N-(4-(2,6-dimethylmorpholino)phenyl)-2-methyl-2H-indazol-5-amine] | 0.1 to 100 |
| CC1CN(c2ccc(Nc3ccc4c(c3)oc(=O)n4CCN(C)C)cc2)CC(C)O1 (stereo not drawn) [Compound 424] | 0.1 to 100 |
| CC1CN(c2ccc(Nc3ccc4c(c3)c(C(N)=O)cn4C)cc2)CC(C)O1 (stereo not drawn) [Compound 425, 5-((4-(2,6-dimethylmorpholino)phenyl)amino)-1-methyl-1H-indole-3-carboxamide] | 0.1 to 100 |
| CC1CN(c2ccc(Nc3ccc4c(c3)n(C)c(=O)n4CCN(C)C)cc2)CC(C)O1 (stereo not drawn) [Compound 426, 1-(2-(dimethylamino)ethyl)-5-((4-(2,6-dimethylmorpholino)phenyl)amino)-3-methyl-1,3-dihydro-2H-benzo[d]imidazol-2-one] | 0.1 to 100 |

Source: US20240327393A1 (SIRONAX LTD., priority 2021, published 2024)
